Experimental data: patent US7482341B2, “Pyridines” (Hoffmann-La Roche Inc., priority 2004, dated 2009)

Key:
[1] = molecular target: T1, 11beta-HSD1 (Homo sapiens, UniProt P28845); set-up: host or cells: human subjects (in vivo); conditions: humans, treatment with carbenoxolone; cited from earlier work
[2] = molecular target: T1, 11beta-HSD1; assay: Microsome assay (cortisone to cortisol, ELISA); type: biochemical; set-up: made in house; host or cells: HEK293 cells (ATCC CRL-1573), transient transfection with pcDNA3 construct; microsomal fraction; conditions: microsomes from HEK293 cells transiently expressing human 11beta-HSD1; 60 min, 37° C.; cortisol production 50% reduced; read-out: h 11-beta-HSD 1 IC50
Protocol: Transient Expression and Partial Purification:
The cDNA encoding the human 11beta-HSD1 protein was cloned into the expression vector pcDNA3 ([…]). This construct (for details see Alex Odermatt et al.; J Biol Chem.,1999, Vol. 274, Issue 40, 28762-28770) was used to transiently express the protein in HEK293 cells (ATCC number: CRL-1573, described in Graham, F. L., Smiley, J., Russell, W. C., Nairn, R.; (1977)) using lipofectamine. 48h after transfection cells were washed twice with ice-cold PBS (Phsophate buffered Saline). To 1 volume of cell suspension in PBS 2 volumes of ice-cold lysis buffer (50 mM Tris; pH7.5; 1 mM EDTA; 100 mM NaCl) were added. The cells were lysed by Potter-homogenization (20 strokes). The resulting homogenate was sonicated wit a tip sonicator (10% output; 2×30 sec.) and cleared by a low speed centrifugation (10 min×9000 g; 4° C.). […]
Microsomes isolated from HEK293 cells transiently expressing human 11beta-HSD1 (for details see above) were incubated in assay buffer (100 mM NaCl; 1 mM EDTA; 1 mM EGTA; 1 mM MgCl; 250 mM Sucrose; 20 mM Tris pH 7.4; Cortisone 50-200 nM and NADPH 1 mM) together with different concentrations of test substances. […] The amount of Cortisol produced in this assay was determined using a commercially available, ELISA-based Cortisol-detection kit (Distributed by Assay Design, Inc.). […]

T1 sequence (P28845 whole entry): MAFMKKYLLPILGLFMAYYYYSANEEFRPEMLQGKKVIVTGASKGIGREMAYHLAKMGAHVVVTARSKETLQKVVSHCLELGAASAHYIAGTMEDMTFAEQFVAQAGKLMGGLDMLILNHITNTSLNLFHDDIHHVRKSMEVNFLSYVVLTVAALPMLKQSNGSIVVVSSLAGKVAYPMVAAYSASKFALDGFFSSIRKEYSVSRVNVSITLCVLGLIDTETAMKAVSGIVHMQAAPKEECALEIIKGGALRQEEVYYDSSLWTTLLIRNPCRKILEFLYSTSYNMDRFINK

| Compound | insulin sensitivity [1] | IC50 [2] [nM] |
| --- | --- | --- |
| CC1(C)[C@@H](OC(=O)CCC(=O)O)CC[C@]2(C)[C@H]3C(=O)C=C4[C@@H]5C[C@@](C)(C(=O)O)CC[C@]5(C)CC[C@@]4(C)[C@]3(C)CC[C@@H]12 [carbenoxolone] | increase in insulin sensitivity |  |
| O=S(=O)(Nc1cccc(COCc2ccc(F)cc2)n1)c1ccc(F)cc1 [Example 105, 4-Fluoro-N-[6-(4-fluoro-benzyloxymethyl)-pyridin-2-yl]-benzenesulfonamide] |  | 16 |
| Cc1c(Cl)cccc1S(=O)(=O)Nc1ccc(Oc2ccc(F)cc2)cn1 [Example 186, 3-Chloro-N-[5-(4-fluoro-phenoxy)-pyridin-2-yl]-2-methyl-benzenesulfonamide benzenesulfonamide] |  | 5 |
